# Source: patent publication US11092532B2, “Method and device for label-free, high throughput holographic screening and enumeration of tumor cells in blood” (Texas Tech University System, priority 2017, dated 2021)
# Experiments:
# [1] = system: breast cancer cell line MCF-7; experiment: dose-dependent cytotoxicity, viability analysis using standard epifluorescence microscopy; type: cell-based; conditions: FIG. 8B
# Text: The method involves using a microfluidic device with multiple inlets to flow different samples adjacent to each other as shown in FIG. 8A. Since the flow is laminar, there is no mixing and identity of each sample is encoded spatially into the microfluidic device. Integrating DHM into this multi-inlet device, the inventors can capture holograms where each hologram contains information of the multiple samples that are spatially segregated. […] FIG. 8A is an image showing a multiple entry microfluidic device for parallel loading of multiple samples. Red arrows indicate the recording window for DHM cytometry for drug response analysis. […] For example, in drug screening there is a need to conduct dose response analysis where different drug concentrations are used to test their impact on the viability of cells (see FIG. 8B for viability analysis using standard fluorescence imaging). To achieve parallel analysis, cells treated with different doses of drug can be introduced into the multi-inlet device and label-free DHM can be used to obtain dose-response curves. Cell culture and drug treatment can also be conducted in the inlet wells of the device or additional microfluidic devices can be daisy-chained prior to DHM interrogation.
# breast cancer cells MCF7 = experiment: inline-DHM cytometry for drug response analysis; type: cell-based
# Text: Briefly, as shown in FIG. 1A the in-line DHM arrangement consists of a laser, a spatial filter and collimator assembly, and an inverted optical microscope (IX-71, Olympus Inc.). A He—Ne laser (10 mW, λ, =0.6328 μm, Thorlabs) is used as a light source, operating in continuous wave (CW) mode. The laser beam is filtered and expanded by a spatial filter assembly consisting of a microscope objective (10×, NA=0.25; Thorlabs) and a pinhole (25 μm diameter). The expanded beam is then collimated using a plano-convex lens (focal length, f=100 mm, Thorlabs). The diameter of the collimated beam is approximately 5 mm. This collimated beam of laser light illuminates cells or beads flowing in the microfluidic channel. The flow through the channel is generated by a syringe pump (KD Scientific). The cross-sectional dimensions of the channel are 1000(y)×350(z) μm^2. The 2D hologram of cells or beads is generated in the focal plane of the microscope objective (M=10×, NA=0.25; Thorlabs) of the optical microscope. The magnified image of the hologram is recorded on a CMOS camera (Phantom v310, Vision Research) at a resolution of 512×512 (20 μm/pixel) and 12-bit gray level quantization.
# The recoded holograms were transferred to a computer for numerical reconstruction and data analysis.
# The probability distribution corresponding to maximum intensity (Imax) of center pixel of focused image of breast cancer cells (MCF7) at different doses of doxorubicin (FIG. 9A) 0.0 μM, (FIG. 9B) 0.0001 μM, (FIG. 9C) 0.01 μM, and (FIG. 9D) 0.1 μM.
smiles,measurement,setting,value
COc1cccc2c1C(=O)c1c(O)c3c(c(O)c1C2=O)C[C@@](O)(C(=O)CO)C[C@@H]3O[C@H]1C[C@H](N)[C@H](O)[C@H](C)O1 [doxorubicin],cytotoxicity (viability of cells),[1],dose-dependent cytotoxicity
same,maximum intensity (Imax) distribution of focused cell image,"breast cancer cells MCF7; MCF-7 cells treated with 0.0001 μM doxorubicin, FIG. 9B",some are affected and their peak intensity shifts to lower values
same,maximum intensity (Imax) distribution of focused cell image,"breast cancer cells MCF7; MCF-7 cells treated with 0.01 μM doxorubicin, FIG. 9C",the number of cells showing lower intensity (Imax) increases
same,maximum intensity (Imax) distribution of focused cell image,"breast cancer cells MCF7; MCF-7 cells treated with 0.1 μM doxorubicin, FIG. 9D",the number of cells showing lower intensity (Imax) increases
